Key:
U937 leukemia cell line = experiment: toxicity against U937 leukemia cell line; type: cell-based, human
Description: Untreated P388 WT (wild type) cells show dark wells where cells are viable.

[1] = biological target: T1, camptothecin-topo I-DNA complex (Homo sapiens, UniProt P11387); type: biochemical; conditions: after addition of NaCl; FIG. 5
T1 sequence (P11387 1-765): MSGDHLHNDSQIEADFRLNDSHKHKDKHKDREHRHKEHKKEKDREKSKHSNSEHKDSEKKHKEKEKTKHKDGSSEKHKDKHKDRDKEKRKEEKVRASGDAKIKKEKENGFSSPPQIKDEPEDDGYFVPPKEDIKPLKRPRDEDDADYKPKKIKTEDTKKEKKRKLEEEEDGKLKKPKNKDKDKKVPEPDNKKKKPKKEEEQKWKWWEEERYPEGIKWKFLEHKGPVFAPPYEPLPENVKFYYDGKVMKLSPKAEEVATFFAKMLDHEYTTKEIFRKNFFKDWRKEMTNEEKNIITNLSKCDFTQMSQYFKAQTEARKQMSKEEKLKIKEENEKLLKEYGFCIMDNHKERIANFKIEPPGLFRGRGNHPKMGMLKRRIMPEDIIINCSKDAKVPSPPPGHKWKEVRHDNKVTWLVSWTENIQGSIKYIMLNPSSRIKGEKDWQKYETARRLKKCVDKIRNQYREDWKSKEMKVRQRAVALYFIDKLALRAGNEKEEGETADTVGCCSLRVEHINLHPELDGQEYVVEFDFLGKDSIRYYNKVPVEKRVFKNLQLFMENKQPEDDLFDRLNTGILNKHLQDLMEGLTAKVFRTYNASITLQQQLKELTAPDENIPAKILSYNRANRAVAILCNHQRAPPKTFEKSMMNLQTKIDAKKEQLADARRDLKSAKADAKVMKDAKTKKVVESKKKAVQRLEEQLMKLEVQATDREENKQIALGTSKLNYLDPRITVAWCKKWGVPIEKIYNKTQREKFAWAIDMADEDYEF
Description: In this assay, nicked DNA is first formed by the action of the camptothecins. Addition of NaCl perturbs the equilibrium and destabilizes the camptothecin-topo I-DNA complex. The persistence of the nicked DNA under these conditions indicates increased stability of the cleavable complex.

human topI = biological target: T2, human topI (Homo sapiens, UniProt P11387); type: biochemical; conditions: band of nicked DNA increases with concentration; FIG. 4
T2 sequence (P11387 1-765): T1 sequence (P11387 1-765)
Description: DNA cleavage produced by human topI in pSK DNA;
The nicked DNA migrates to position 2 on these gels.

Structure (SMILES) | IC50 (U937 leukemia cell line) [nM] | time after which nicked DNA is difficult to detect [1] [min] | induction of nicked DNA (human topI) | persistence of nicked DNA / stabilization of the cleavable complex [1]
CC[C@@]1(O)C(=O)OCc2c1cc1n(c2=O)Cc2c-1nc1cc3c(cc1c2CCl)OCO3 [CMMDC, 7-chloromethyl-10,11-methylenedioxy-20(S)-camptothecin] | 7 |  |  | 
CC[C@@]1(O)C(=O)OCc2c1cc1n(c2=O)Cc2cc3ccccc3nc2-1 [CPT, camptothecin] |  | 3 | induce nicked DNA | 
CC[C@@]1(O)C(=O)OCc2c1cc1n(c2=O)Cc2cc3cc4c(cc3nc2-1)OCO4 [MDC, 10,11-methylenedioxy-20(S)-camptothecin] |  |  | induce nicked DNA | show nicked DNA for longer periods of time
